27 compounds from patent publication US7494997B2, “Amide derivative” (Nippon Shinyaku Co., Ltd., priority 2002, dated 2009) can be followed below.

Like-named read-outs stand apart in the source and are kept apart here.

One data set concerns K562 cells. Description: Cell growth inhibitory effect, K562 cells (WST-8, 72 hours). The note with it: for IC50: read-out: K562 cells (IC50 value: μM); for Ratio (U937 cells/K562 cells): ratio of IC50 values U937 cells/K562 cells. In general terms: Formazan colour is commonly taken as a measure of viable cells.
The next data set concerns U937 cells. Description: Cell growth inhibitory effect, U937 cells (WST-8, 72 hours). The note with it: Homo sapiens, U-937, 72 h, read-out: U937 cells (IC50 value: μM).
[1] abbreviates: BCR-ABL positive K562 cells, 72 hours, cell growth inhibition.

In the case of `Cc1ccc(NC(=O)c2ccc(CN3CCN(C)CC3)c([N+](=O)[O-])c2)cc1Nc1nccc(-c2cccnc2)n1` (hydrate or solvate) [Example 22, 4-(4-methylpiperazin-1-ylmethyl)-3-nitro-N-{4-methyl-3-[4-(3-pyridyl)pyrimidin-2-ylamino]phenyl}benzamide], the melting point fell in the range of 184 to 186 °C.
`CCCN1CCN(Cc2ccc(C(=O)Nc3ccc(C)c(Nc4nccc(-c5cccnc5)n4)c3)cc2Br)CC1` [Example 28, 3-bromo-4-[4-(n-propyl)piperazin-1-ylmethyl]-N-{4-methyl-3-[4-(3-pyridyl)pyrimidin-2-ylamino]phenyl}benzamide] had a melting point of 204 to 205 °C. For the same compound, the half-maximal inhibitory concentration (IC50) in the data set on K562 cells (Homo sapiens, K562, 72 h) is 0.00065 µM. Moreover, in the data set on K562 cells, the “Ratio (U937 cells/K562 cells)” value was 10723.1. In addition, the IC50 in the data set on U937 cells was determined as 6.97 µM.
Turning to `Cc1ccc(NC(=O)c2ccc(CN3CCN(C)CC3)c(Br)c2)cc1Nc1nncc(-c2cccnc2)n1` (hydrate or solvate) [Example 20, 3-bromo-4-(4-methylpiperazin-1-ylmethyl)-N-{4-methyl-3-[5-(3-pyridyl)-1,2,4-triazin-3-ylamino]phenyl}benzamide], the melting point was in the range of 219 to 221 °C.
Consider `Cc1ccc(NC(=O)c2ccc(CN3CCNCC3)c(Br)c2)cc1Nc1nccc(-c2cncnc2)n1` [Example 36, 3-bromo-4-(1-piperazinylmethyl)-N-{4-methyl-3-[4-(5-pyrimidinyl)pyrimidin-2-ylamino]phenyl}benzamide], for which, in the data set with K562 cells (setting [1]), the IC50 came to 0.0041 µM.
The compound `Cc1ccc(NC(=O)c2ccc(CN3CCN(C)CC3)c(C(F)(F)F)c2)cc1Nc1nccc(-c2cncc(Br)c2)n1.Cl` registered a melting point of 184 to 187 °C.
The same measure, in the same setting: next, `Cc1ccc(NC(=O)c2ccc(CN3CCN(C)CC3)c(Br)c2)cc1Nc1nccc(-c2cccnn2)n1` [Example 12, 3-bromo-4-(4-methylpiperazin-1-ylmethyl)-N-{4-methyl-3-[4-(3-pyridazinyl)pyrimidin-2-ylamino]phenyl}benzamide]: 185 to 187 °C (dec.).
Turning to `Cc1ccc(NC(=O)c2ccc(CN3CCN(C)CC3)c(C#N)c2)cc1Nc1nccc(-c2cccnc2)n1` [Example 40, 3-cyano-4-(4-methylpiperazin-1-ylmethyl)-N-{4-methyl-3-[4-(3-pyridyl)pyrimidin-2-ylamino]phenyl}benzamide], the melting point is 191 to 193 °C (dec.). Besides, in the data set with K562 cells (Homo sapiens, K562, 72 h), the IC50 came to 0.0054 µM. The “Ratio (U937 cells/K562 cells)” value in the data set with K562 cells was found to be 777.8. In the data set on U937 cells, the 50% inhibitory concentration (IC50) was found to be 4.2 µM.
As to `Cc1ccc(NC(=O)c2ccc(CN3CCN(C)CC3)c(Br)c2)cc1Nc1cc(-c2cccnc2)ccn1` [Example 14, 3-bromo-4-(4-methylpiperazin-1-ylmethyl)-N-{4-methyl-3-[4-(3-pyridyl)pyridin-2-ylamino]phenyl}benzamide], the melting point is 244 to 245 °C (dec.). Besides, in the data set on K562 cells (Homo sapiens, K562, 72 h), the IC50 came out at 0.003 µM. In addition, the “Ratio (U937 cells/K562 cells)” value with K562 cells is on record as above 3333.3. The IC50 in the data set on U937 cells is above 10 µM.
Compound `Cc1ccc(NC(=O)c2ccc(CN3CCN(C)CC3)c(Br)c2)cc1Nc1cncc(-c2cccnc2)c1` (hydrate or solvate) [Example 17, 3-bromo-4-(4-methylpiperazin-1-ylmethyl)-N-{4-methyl-3-[3-(3-pyridyl)pyridin-5-ylamino]phenyl}benzamide] displayed a melting point of 139 to 141 °C.
On to `Cc1ccc(NC(=O)c2ccc(CN3CCN(C)CC3)c([N+](=O)[O-])c2)cc1Nc1nccc(-c2cccnc2)n1` [Example 22, 4-(4-methylpiperazin-1-ylmethyl)-3-nitro-N-{4-methyl-3-[4-(3-pyridyl)pyrimidin-2-ylamino]phenyl}benzamide], for which the IC50 came to 0.0032 µM with K562 cells (Homo sapiens, K562, 72 h) and 6.56 µM in the data set on U937 cells. In the data set on K562 cells, the “Ratio (U937 cells/K562 cells)” value came to 2050.0.
Take `Cc1ccc(NC(=O)c2ccc(CN3CCCN(C)CC3)c(Br)c2)cc1Nc1nccc(-c2cccnc2)n1` [Example 35, 3-bromo-4-(4-methyl-hexahydro-1H-1,4-diazepin-1-ylmethyl)-N-{4-methyl-3-[4-(3-pyridyl)pyrimidin-2-ylamino]phenyl}benzamide]: the melting point was 156 to 157 °C. In the data set with K562 cells (Homo sapiens, K562, 72 h), the IC50 was 0.0075 µM. Further, the “Ratio (U937 cells/K562 cells)” value in the data set with K562 cells worked out at 696.0. Further, in the data set on U937 cells, the concentration for half-maximal inhibition (IC50) came to 5.22 µM.
`Cc1ccc(NC(=O)c2ccc(CN3CCCCC3)c(Br)c2)cc1Nc1nccc(-c2cccnc2)n1` [Example 32, 3-bromo-4-(piperidinomethyl)-N-{4-methyl-3-[4-(3-pyridyl)pyrimidin-2-ylamino]phenyl}benzamide] yielded a melting point of 158 to 159 °C.
Compound `CCN1CCN(Cc2ccc(C(=O)Nc3ccc(C)c(Nc4nccc(-c5cccnc5)n4)c3)cc2Br)CC1` (hydrate or solvate) [Example 27, 3-bromo-4-(4-ethylpiperazin-1-ylmethyl)-N-{4-methyl-3-[4-(3-pyridyl)pyrimidin-2-ylamino]phenyl}benzamide] displayed a melting point of 202 to 203 °C.
For `COC(=O)c1cc(C(=O)Nc2ccc(C)c(Nc3nccc(-c4cccnc4)n3)c2)ccc1CN1CCN(C)CC1` [Example 39, 3-methoxycarbonyl-4-(4-methylpiperazin-1-ylmethyl)-N-{4-methyl-3-[4-(3-pyridyl)pyrimidin-2-ylamino]phenyl}benzamide], the melting point was 159 to 161 °C (dec.). Also, in the data set with K562 cells (Homo sapiens, K562, 72 h), the IC50 came to 0.035 µM. In the data set on K562 cells, the “Ratio (U937 cells/K562 cells)” value is listed as above 285.7. Further, the half-inhibitory concentration (IC50) with U937 cells was above 10 µM.
For the compound `CS(=O)(=O)O.Cc1ccc(NC(=O)c2ccc(CN3CCN(C)CC3)c(C(F)(F)F)c2)cc1Nc1nccc(-c2cncnc2)n1`, the melting point was 171 to 173 °C.
Take `Cc1ccc(NC(=O)c2ccc(CN3CCN(C)CC3)c(Br)c2)cc1Nc1cc(-c2cncnc2)ccn1` [Example 15, 3-bromo-4-(4-methylpiperazin-1-ylmethyl)-N-{4-methyl-3-[4-(5-pyrimidinyl)pyridin-2-ylamino]phenyl}benzamide]: the melting point is 244 to 246 °C (dec.). Moreover, in the data set with K562 cells (Homo sapiens, K562, 72 h), the 50% inhibitory concentration (IC50) is 0.0048 µM. Besides, in the data set with K562 cells, the “Ratio (U937 cells/K562 cells)” value was 1895.8. In addition, the IC50 with U937 cells was found to be 9.1 µM.
`Cc1ccc(NC(=O)c2ccc(CN3CCN(C)CC3)c(C(F)(F)F)c2)cc1Nc1nccc(-c2cccnc2)n1` [Example 5, 4-(4-methylpiperazin-1-ylmethyl)-3-trifluoromethyl-N-{4-methyl-3-[4-(3-pyridyl)pyrimidin-2-ylamino]phenyl}benzamide]: the melting point is 182 to 183 °C (dec.). For the same compound, in the data set on K562 cells (Homo sapiens, K562, 72 h), the 50% inhibitory concentration (IC50) worked out at 0.0008 µM. Further, the IC50 in the data set on U937 cells was determined as 3.99 µM.
`Cc1ccc(NC(=O)c2ccc(CN3CCNCC3)c(C(F)(F)F)c2)cc1Nc1nccc(-c2cncnc2)n1` [Example 38, 4-(1-piperazinylmethyl)-3-trifluoromethyl-N-{4-methyl-3-[4-(5-pyrimidinyl)pyrimidin-2-ylamino]phenyl}benzamide]: in the data set on K562 cells (setting [1]), the IC50 came to 0.00093 µM.
Compound `Cc1ccc(NC(=O)c2ccc(CN3CCN(C)CC3)c(Br)c2)cc1Nc1cncc(-c2cccnc2)n1` (hydrate or solvate) [Example 19, 3-bromo-4-(4-methylpiperazin-1-ylmethyl)-N-{4-methyl-3-[2-(3-pyridyl)pyrazin-6-ylamino]phenyl}benzamide] showed a melting point of 192 to 193 °C.
Consider `Cc1ccc(NC(=O)c2ccc(CN3CCN(C)CC3)c(Br)c2)cc1Nc1nccc(-c2cncnc2)n1.Cl`, for which the melting point was 184 to 186 °C (dec.).
For `CCN1CCN(Cc2ccc(C(=O)Nc3ccc(C)c(Nc4nccc(-c5cccnc5)n4)c3)cc2Br)CC1` [Example 27, 3-bromo-4-(4-ethylpiperazin-1-ylmethyl)-N-{4-methyl-3-[4-(3-pyridyl)pyrimidin-2-ylamino]phenyl}benzamide], the IC50 in the data set with K562 cells (Homo sapiens, K562, 72 h) was found to be 0.00049 µM; with U937 cells it was 7.16 µM. Further, the “Ratio (U937 cells/K562 cells)” value in the data set on K562 cells is recorded as 14612.2.
For `Cc1ccc(NC(=O)c2ccc(CN3CCN(C)CC3)c(Br)c2)cc1Nc1nncc(-c2cccnc2)n1` [Example 20, 3-bromo-4-(4-methylpiperazin-1-ylmethyl)-N-{4-methyl-3-[5-(3-pyridyl)-1,2,4-triazin-3-ylamino]phenyl}benzamide], the IC50 came to 0.015 µM with K562 cells (Homo sapiens, K562, 72 h) and 1.82 µM in the data set with U937 cells. Also, the “Ratio (U937 cells/K562 cells)” value in the data set with K562 cells is 121.3.
`Cc1ccc(NC(=O)c2ccc(CN3C[C@@H](C)N[C@@H](C)C3)c(Br)c2)cc1Nc1nccc(-c2cccnc2)n1` [Example 34, 3-bromo-4-(cis-3,5-dimethylpiperazin-1-ylmethyl)-N-{4-methyl-3-[4-(3-pyridyl)pyrimidin-2-ylamino]phenyl}benzamide] gave a melting point of 204 to 205 °C.
The same measure, in the same setting: next, `Cc1ccc(NC(=O)c2ccc(CN3CCN(C)CC3)c(Br)c2)cc1Nc1nccc(-c2ccc(Cl)nc2)n1` [Example 8, 3-bromo-4-(4-methylpiperazin-1-ylmethyl)-N-{3-[4-(6-chloropyridin-3-yl)pyrimidin-2-ylamino]-4-methylphenyl}benzamide]: 219 to 222 °C (dec.); `Cc1ccc(NC(=O)c2ccc(CN3CCN(C)CC3)c(Br)c2)cc1Nc1cccc(-c2cccnc2)c1` [Example 18, 3-bromo-4-(4-methylpiperazin-1-ylmethyl)-N-{4-methyl-3-[3-(3-pyridyl)phenylamino]phenyl}benzamide]: 174 to 175 °C.
On to `Cc1ccc(NC(=O)c2ccc(CN3CCN(C)CC3)c(Br)c2)cc1Nc1cncc(-c2cccnc2)n1` [Example 19, 3-bromo-4-(4-methylpiperazin-1-ylmethyl)-N-{4-methyl-3-[2-(3-pyridyl)pyrazin-6-ylamino]phenyl}benzamide], for which the IC50 stood at 0.06 µM in the data set with K562 cells (Homo sapiens, K562, 72 h) and 2.4 µM in the data set with U937 cells. Moreover, the “Ratio (U937 cells/K562 cells)” value in the data set on K562 cells is recorded as 40.0.
Take `Cc1ccc(NC(=O)c2ccc(CN3CCN(C)CC3)c(C(=O)N(C)C)c2)cc1Nc1nccc(-c2cccnc2)n1` [Example 26, 3-(N,N-dimethylcarbamoyl)-4-(4-methylpiperazin-1-ylmethyl)-N-{4-methyl-3-[4-(3-pyridyl)pyrimidin-2-ylamino]phenyl}benzamide]: the melting point is 210 to 214 °C (dec.).

In general, melting point refers to the temperature, or range, at which the solid turns liquid. Usually IC50 stands for the concentration that gives 50% inhibition.
